Experimental findings from a melting point compilation (Tetko et al.; mined from patent text by program, amines drawn as free bases though some values may be those of a salt) are described below.

As a reminder, the melting point is the temperature of the solid-liquid transition.

In turn, `NC(=O)c1cc(COc2nnc(Nc3ccc(Cl)cc3)c3ccsc23)ccn1` displayed a melting point of 233 °C. Under `Nc1c(F)c(N2CC[C@@H](C3(NCCO)CC3)C2)c(F)c2c1c(=O)c(C(=O)O)cn2[C@@H]1C[C@@H]1F` stands 198 to 200 °C; under `CCCOc1nc2sc(Cl)cc2c(=NC(=O)OC)n1CCC`, 65 to 67 °C.

As for `O=c1[nH]c2ccc(O)cc2[nH]1`, the melting point fell in the range of 186 to 187 °C.

For the compound `O=C1NC(=O)c2ccccc2/C1=C/Nc1ccc(N2CCOCC2)cc1`, the melting point lay within 257 to 258 °C. In the case of `CCOC(=O)N1CCC(=C2c3ccccc3CCn3c(CO)cnc32)CC1` it was 192 °C; in that of `COc1cc(-c2ncn(CCO)c2-c2ccc(C(F)(F)F)cc2)cc(OC)c1OC`, 208 to 210 °C. In the case of `Cc1ccc2c(c1)c(N1CCN(C(=O)c3ccco3)CC1)c(C#N)c(=O)n2Cc1ccc(F)cc1` it was 276 °C; in that of `Cc1cccc2c(=O)[nH]c(CC3CN4CCC3CC4)nc12` (stereo unspecified), 187 to 188 °C. Under `CCCOc1ccc(C(=O)N/C(=C\c2ccc(OC(F)(F)F)cc2)C(=O)NCCO)cc1` stands 185 to 186 °C.

`O=C(NCc1ccccn1)Nc1cc(N2CC(COc3ccccc3)CC2=O)ccn1` (stereo unspecified) yielded a melting point of 135 to 137 °C. Under `Cc1nn(-c2cc(Oc3ccc(C(=O)O)cc3)c(Cl)cc2F)c(=O)n1C(F)F` stands 184 to 185 °C.

In the case of `O=C1c2ccc(C#Cc3cccc4ccccc34)cc2C(=O)N1c1ccccc1`, the melting point lay in the range of 176 to 178 °C. Under `CCOC(=O)c1oc2cc(O)ccc2c(=O)c1C#N` stands 262 to 264 °C; under `NC1CCC(C(=O)Nc2cccc(-c3cccc4c3/C(=C/c3ccc[nH]3)C(=O)N4)c2)CC1` (stereo unspecified), 210 to 212 °C; under `CC(=O)Oc1ccc(CCC2CC(=O)OC(=O)C2)cc1`, 97 to 99 °C. Under `CC(C)C[C@H](NC(=O)[C@H](Cc1c[nH]cn1)NC(=O)[C@H](Cc1cccc2ccccc12)NC(=O)OCc1ccccc1)[C@@H](O)CCO` stands 196 to 198 °C. In the case of `Cc1ccc(-c2nc(CCCCCCOC(C)(C)c3nnn[nH]3)c(C)o2)cc1` it was 87 °C; in that of `CC(C)=CCn1ccnc1[N+](=O)[O-]`, 48 to 49 °C.

For `CC(C)Nc1cccnc1N1CCN(C(=O)c2ccc(C(=O)N[C@H](C)CO)cn2)CC1`, the melting point lay in the range of 129 to 130 °C. In the case of `C=CC(=O)Oc1ccc(-c2cccc(F)c2F)cc1` it was 88.4 to 90 °C; in that of `COc1cc(-c2cc(C(F)(F)F)nn2-c2ccc(S(N)(=O)=O)c(F)c2)ccc1-c1cscn1`, 97 to 99 °C. In the case of `COc1ccc(C(=O)O)c2c1CCCC2` it was 214 to 215 °C. Under `C/C=C1\NC(=O)N(CCCC)C1=O` stands 127 °C; under `O=C(Cc1ccc(Cl)cc1Cl)c1ccncc1`, 77 °C. As for `CN1CCCC1CCNc1ncc2c(c1C#N)-c1ccccc1C(c1ccc(Cl)c(Cl)c1)C2` (stereo unspecified), the melting point lay within 131 to 134 °C. Under `NC(=O)N(O)Cc1ccc(C(O)C#Cc2cccc(Cl)c2)cc1` (stereo unspecified) stands 118 to 119 °C. In turn, `COc1ccc(S(=O)(=O)N(C)C)cc1C(=O)NCc1ccc(OCCN(C)C)cc1` returned a melting point of 99.5 to 100 °C. In the case of `CC(C)(C)C(NC(=O)c1ccc(Cl)cc1)NC(=C[N+](=O)[O-])Nc1cccnc1` (stereo unspecified) it was 195 to 196 °C; in that of `CC(C)(C)S(=O)(=O)N1C[C@H](O)C[C@@H]1c1cc(F)cc(C#N)c1`, 93 to 96 °C; in that of `CC(C)NC(C)CCc1nc(Cn2cnc3c2c(=O)n(C)c(=O)n3C)no1` (stereo unspecified), 55 to 61 °C. On to `CC(=O)C(Cc1nsc2ccc(-n3c(=O)cc(C(F)(F)F)n(C)c3=O)cc12)C(=O)OC(C)(C)C` (stereo unspecified), for which the melting point was 76 to 78 °C.

Turning to `CC(C)CC(Sc1c(Cl)cccc1Cl)c1c(O)cc(-c2ccccc2)oc1=O` (stereo unspecified), the melting point lay in the range of 158 to 162 °C.

With `O=C(O)CCCNC(=O)c1nc(Cl)c(Cl)[nH]1`, the melting point was 285 °C.

`CC(=O)Oc1ccc2ccc(=O)oc2c1CC(Br)CBr` (stereo unspecified) came in with a melting point of 123 to 124 °C. For `CCC(CC)(NC(=O)CCn1cnc(CC#N)c1)c1ccccc1`, the melting point lay within 121 to 122 °C. Under `CCN(CC)C(=O)n1cnc(SCC2CC2)n1` stands 51 to 52 °C. In the case of `c1ccc(NC2=NC3CCCc4cccc(c43)N2)cc1` (stereo unspecified) it was 233 to 235 °C; in that of `CC(C)(N)CNc1ccnc2cc(Cl)ccc12`, 169 to 171 °C. Under `CC(Cl)C(=O)Nc1nc(-c2ccccc2)cs1` (stereo unspecified) stands 98 to 99 °C; under `CC(=O)c1ccc(Nc2cccc(-c3ccccn3)c2)c([N+](=O)[O-])c1`, 195 to 196 °C. In the case of `CC(C)(O)Cn1c(CO)nc2c(N)nc3cc(OCc4ccccc4)ccc3c21`, the melting point lay within 284 to 286 °C. In the case of `CCOc1ccc2c(c1)n(C1CCCC1)c(=O)n2S(=O)(=O)c1ccc(C(=O)OC)cc1OC` it was 151 °C; in that of `CC(=O)OC1(c2ccc3c(c2)OCO3)C(=O)N(Cc2ccc(Cl)cc2)c2ccccc21` (stereo unspecified), 146 to 148 °C. Under `Cc1ccc(-c2cn(C)cc(-c3cccc(C)c3)c2=O)cc1` stands 155 to 157 °C; under `CN1C(=O)COc2cc(S(=O)Cc3ccccc3)ccc21` (stereo unspecified), 133 to 135 °C. In the case of `CC(=O)N1CC(=O)NC(=O)N1c1cc(Cl)c(Oc2ccc(S(C)(=O)=O)cc2)c(Cl)c1` it was 267 °C; in that of `Cc1noc(NS(=O)(=O)c2cc(-c3ccccc3)cs2)c1Br`, 108 to 110 °C. Take `O=C(Cl)c1ccc(-c2nc(C(Cl)(Cl)Cl)nc(C(Cl)(Cl)Cl)n2)cc1`: the melting point was in the range of 100 to 101 °C.

The compound `COc1ccc2c(c1)c(C1CCN(Cc3ccc(OC)c(C(=O)O)c3)CC1)cn2CCc1ccsc1` returned a melting point of 229 to 230 °C. For `O=c1[nH]c2ncc(-c3ccc(-c4n[nH]c(C(F)(F)F)n4)cc3)nc2n1CC1CCCCC1`, the melting point is 303 to 305 °C. In the case of `O=C(C1CCN(S(=O)(=O)c2ccc3cc(Br)ccc3c2)CC1)N1CCN(c2ccncc2)CC1` it was 229 to 230 °C; in that of `Cc1ccccc1CC(=NC#N)NC(NC(=O)Cc1ccc(C#N)cc1)C(C)(C)C` (stereo unspecified), 199 to 201 °C; in that of `CCOC(=O)COc1cc(C2COc3c(C)c(C)c(NC(=O)CC(C)(C)C)c(C)c32)ccc1C(C)C` (stereo unspecified), 149 to 150 °C. Under `Sc1nc2cc3ccccc3cc2o1` stands 101 to 102 °C; under `Clc1ccc2c(C3CCN(CCCCC4Cc5ccccc5C4)CC3)c[nH]c2c1`, 139 to 140 °C. Under `O=C(O)Cc1ccc(-n2cc(Cl)cn2)cc1Cl` stands 152 to 153 °C; under `CC(=O)NCC1CC1c1cccc2nc(C)nn12` (stereo unspecified), 124 to 126 °C. The compound `O=C(c1cc(Cl)ccc1O)c1ccccc1F` displayed a melting point of 76 to 80.5 °C. The compound `CNC(=O)N(O)CCOc1ccc2c(c1)CCN(CCCc1ccccc1)C2=O` showed a melting point of 138 to 139 °C. In the case of `NCCOCn1cnc2c(N)ncnc21` it was 170 to 171 °C; in that of `CCOc1ccc2c(c1)n(C1CCCCC1)c(=O)n2S(=O)(=O)c1ccc([N+](=O)[O-])cc1OC`, 162 °C. In the case of `O=C1NC(=O)C2(c3ccc4ccc(Cl)nc4n3)C=CC=CC12` (stereo unspecified) it was 268 °C; in that of `CCOC(=O)c1cccc(-c2ccc3c(n2)C(O)CC3)c1` (stereo unspecified), 46 to 47 °C; in that of `O=Cc1c(O)cccc1OCCCCC(=O)O`, 94 °C.

In turn, `NC(=O)c1ccc(C2CCCc3cncn32)cc1` (stereo unspecified) registered a melting point of 181 to 183 °C. Under `C=C(C)C(=O)OCCOc1ccc(-c2ccccc2)cc1` stands 59 to 60 °C; under `CCc1noc(-c2cn(-c3nccs3)cn2)n1`, 147 to 148 °C. Under `OC1CCN(c2ccc(Br)cn2)CC1` stands 91 to 93 °C. In the case of `CC(=O)Oc1ccc([C@@H]2O[C@H]2CO)cc1` it was 59 to 61 °C; in that of `CN1CC(CCNC(=S)NC(=O)c2ccccc2)CC2c3cccc4[nH]cc(c34)CC21` (stereo unspecified), 205 to 207 °C; in that of `CC(=O)C1(Nc2ccc(C)cc2)CCN(CCc2ccccc2)CC1`, 134 °C.

In turn, `CS(=O)(=O)c1ccc(C2=C(c3ccc(F)c(Cl)c3)CCC2)cc1` showed a melting point of 87.5 to 88.5 °C. Under `Cc1ccc(-c2nc3ccc(N(C)C)cn3c2CNC(=O)CC(C)C)cc1` stands 173 to 175 °C; under `CC(C)(C)NCC(O)COc1ccc2c(c1-c1nc(C(F)(F)F)c[nH]1)CCCC2` (stereo unspecified), 203 to 205 °C. Under `COc1ccc(N)cc1-c1nc(C)c(-c2cccnc2)[nH]1` stands 172 to 173 °C; under `CCn1c(=O)sc2cc(N)ccc21`, 132 to 133 °C; under `CC(=O)C1=CCC2C3CCC4CC5OC5CC4(C)C3CCC12C` (stereo unspecified), 145 to 149 °C. Under `CCN(CC)c1ccncc1NC(=S)NC1CCCCC1` stands 119 to 121 °C; under `Cc1cccc(C(=O)NCC2CC2)c1NC(=O)c1cc(C(F)(F)F)nn1-c1ncccc1Cl`, 199 °C. `COc1cc(-c2cnc3[nH]cc(C(=O)C4(C)CCCC4)c3n2)cc(OC)c1OC` returned a melting point of 244 to 246 °C. Regarding `Cn1nc(O)c(C(F)F)c1Cl`, the melting point fell in the range of 122 to 123 °C.

With `CO/C=C(/C(=O)OC)n1cccc1`, the melting point was in the range of 88 to 89 °C. Under `CCc1c(C)c(=O)oc2cc(O)ccc12` stands 184 °C. In the case of `COc1ccccc1CCl` it was 69.5 to 70.5 °C; in that of `CCOC(=O)C1=Cc2c(ccc(Cl)c2I)OC1C(F)(F)F` (stereo unspecified), 117 to 119 °C. Under `c1ccc2[nH]c(CN3CCOCC3)nc2c1` stands 235 to 236 °C; under `CSCC[C@@H](NC(=O)OC(C)(C)C)C(=O)Oc1c(Cl)c(Cl)c(Cl)c(Cl)c1Cl`, 133 to 134 °C. With `Nc1ccc2c(c1N)CN(Cc1ccc(C(F)(F)F)cc1)CC2`, the melting point fell in the range of 130 to 135 °C. Consider `CCOc1cc(N)c([N+](=O)[O-])cc1C(=O)O`, for which the melting point was determined as 230 °C.

The compound `Nc1cccc(C(=O)c2ccc(Cl)cc2)c1` showed a melting point of 114 to 115 °C.
